Measured values published in patent publication US20240252488A1 (KOREA RESEARCH INSTITUTE OF CHEMICAL TECHNOLOGY, priority 2020, published 2024).

Experiments:
MLKL [1] = target: T1, MLKL (Homo sapiens, UniProt Q8NB16); assay: MLKL degradation assay in HepG2 cell line (western blot); type: cell-based; set-up: endogenous in cells; host or cells: HepG2 or HaCaT; details: cell line not given; for Degradation assay (Degradation %) 1 μM: compound 1 μM; for Degradation assay (Degradation %) 10 μM: compound 10 μM
T1 sequence (Q8NB16 1-471): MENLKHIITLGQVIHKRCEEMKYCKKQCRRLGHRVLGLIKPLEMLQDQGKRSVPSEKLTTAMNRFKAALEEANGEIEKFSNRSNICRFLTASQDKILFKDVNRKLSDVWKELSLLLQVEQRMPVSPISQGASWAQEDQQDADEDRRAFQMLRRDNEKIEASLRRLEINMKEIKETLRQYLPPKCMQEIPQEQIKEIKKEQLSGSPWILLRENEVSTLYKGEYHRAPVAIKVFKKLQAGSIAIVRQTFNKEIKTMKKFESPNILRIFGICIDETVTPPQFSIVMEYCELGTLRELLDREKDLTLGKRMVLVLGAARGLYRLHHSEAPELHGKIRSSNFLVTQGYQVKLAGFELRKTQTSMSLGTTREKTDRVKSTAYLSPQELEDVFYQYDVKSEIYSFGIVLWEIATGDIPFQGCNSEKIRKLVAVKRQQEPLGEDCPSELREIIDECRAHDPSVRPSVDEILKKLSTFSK
In short: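 After treating HepG2 with test compounds (final 1 μM or 10 μM) for 20-24 h, we lysed cells, equalized protein by BCA and probed MLKL by overnight primary antibody at 4 °C followed by chemiluminescent detection.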

MLKL [2] = target: T1, MLKL; assay: Measurement of binding affinity with MLKL receptor (competitive binding assay, Kd); set-up: made in house; host or cells: HEK 293 cell line (T7 phage in E. coli BL21-derived host is also described)
In short: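 qPCR of MLKL eluted from liganded beads served as the read-out, from which Kd was derived. The protein was made in HEK 293 cells with a DNA tag, and test compounds competed with the bead-bound ligand at 0.9% final DMSO.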

FADD−/− Jurkat cells = assay: Necroptosis inhibition assay, TNF-α-induced necroptosis (CellTiter-Glo 2.0); type: cell-based, human; details: TNF-α 15 ng/mL; for Necroptosis inhibition assay (Rescue %) 1 μM: compound 1 μM; for Necroptosis inhibition assay (Rescue %) 10 μM: compound 10 μM
In short: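 Necroptosis was triggered by TNF-α at 15 ng/mL final following 30 minutes of compound exposure (0.1, 1 or 10 μM final). Incubation ran 20 to 24 hours at 37° C under 5% CO2; cell ATP was then quantified by luminescence.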

| SMILES | Degradation assay (Degradation %) 1 μM (MLKL [1]) [%] | Degradation assay (Degradation %) 10 μM (MLKL [1]) [%] | Kd (MLKL [2]) [nM] | Necroptosis inhibition assay (Rescue %) 1 μM (FADD−/− Jurkat cells; FADD−/− Jurkat cells) [%] | Necroptosis inhibition assay (Rescue %) 10 μM (FADD−/− Jurkat cells; FADD−/− Jurkat cells) [%] | Necroptosis inhibition assay (Rescue %) 1.1 μM (FADD−/− Jurkat cells; compound 1.1 µM) | Necroptosis inhibition assay (Rescue %) 10 μM (FADD−/− Jurkat cells) [%] | Necroptosis inhibition assay (Rescue %) 1 μM (FADD−/− Jurkat cells) [%] |
| --- | --- | --- | --- | --- | --- | --- | --- | --- |
| Nc1ncc(-c2cnn(C3CCN(C(=O)CC4CCN(C(=O)C5CN(c6ccc7c(c6)C(=O)N(C6CCC(=O)NC6=O)C7=O)C5)CC4)CC3)c2)nc1C(=O)O[C@@H](C(=O)Nc1ccc(F)cc1)c1ccccc1 (stereo partly drawn) [TDH-401, (R)-2-((4-fluorophenyl)amino)-2-oxo-1-phenylethyl 3-amino-6-(1-(1-(2-(1-(1-(2-(2,6-dioxopiperidin-3-yl)-1,3-dioxoisoindolin-5-yl)azetidine-3-carbonyl)piperidin-4-yl)acetyl)piperidin-4-yl)-1H-pyrazol-4-yl)pyrazine-2-carboxylate] | 74.27 | 72.99 | 6.8 | 33.10 | 28.25 | – | – | – |
| Nc1ncc(-c2cnn(C3CCN(CCC4CCN(C(=O)CNc5ccc6nnn(C7CCC(=O)NC7=O)c(=O)c6c5)CC4)CC3)c2)nc1C(=O)O[C@@H](C(=O)Nc1ccc(F)cc1)c1ccccc1 (stereo partly drawn) [TDH-334, (R)-2-((4-fluorophenyl)amino)-2-oxo-1-phenylethyl 3-amino-6-(1-(1-(2-(1-((3-(2,6-dioxopiperidin-3-yl)-4-oxo-3,4-dihydrobenzo[d][1,2,3]triazin-6-yl)glycyl)piperidin-4-yl)ethyl)piperidin-4-yl)-1H-pyrazol-4-yl)pyrazine-2-carboxylate] | 75.98 | 83.61 | 0.82 | – | – | 86.58 (1.1 µM) % | 50.45 | – |
| Nc1ncc(-c2cnn(C3CCN(CC4CCN(C(=O)COc5ccc6c(c5)C(=O)N(C5CCC(=O)NC5=O)C6=O)CC4)CC3)c2)nc1C(=O)N[C@@H](C(=O)Nc1ccc(F)cc1)c1ccccc1 (stereo partly drawn) [TDH-187, 3-amino-6-(1-(1-((1-(2-((2-(2,6-dioxopiperidin-3-yl)-1,3-dioxoisoindolin-5-yl)oxy)acetyl)piperidin-4-yl)methyl)piperidin-4-yl)-1H-pyrazol-4-yl)-N-((R)-2-((4-fluorophenyl)amino)-2-oxo-1-phenylethyl)pyrazine-2-carboxamide] | 27.67 | – | 150 | – | – | – | 29.31 | 28.68 |
| Nc1ncc(-c2ccc(N3CCN(CCOCCOCCNC(=O)COc4cccc5c4C(=O)N(C4CCC(=O)NC4=O)C5=O)CC3)nc2)nc1C(=O)OC(C(=O)Nc1ccc(F)cc1)c1ccccc1 (centres unmarked) [TDH-261, 2-((4-fluorophenyl)amino)-2-oxo-1-phenylethyl 3-amino-6-(6-(4-(2-(2-(2-(2-((2-(2,6-dioxopiperidin-3-yl)-1,3-dioxoisoindolin-4-yl)oxy)acetamido)ethoxy)ethoxy)ethyl)piperazin-1-yl)pyridin-3-yl)pyrazine-2-carboxylate] | 34.54 | 42.25 | 43 | – | – | – | 14.28 | 15.5 |
| Nc1ncc(-c2cnn(C3CCN(C(=O)COCCOCCNC(=O)CNc4cccc5c4C(=O)N(C4CCC(=O)NC4=O)C5=O)CC3)c2)nc1C(=O)O[C@@H](C(=O)Nc1ccc(F)cc1)c1ccccc1 (stereo partly drawn) [TDH-190, (R)-2-((4-fluorophenyl)amino)-2-oxo-1-phenylethyl 3-amino-6-(1-(1-(2-(2-(2-(2-((2-(2,6-dioxopiperidin-3-yl)-1,3-dioxoisoindolin-4-yl)amino)acetamido)ethoxy)ethoxy)acetyl)piperidin-4-yl)-1H-pyrazol-4-yl)pyrazine-2-carboxylate] | – | 4.57 | 13 | – | – | – | 43.59 | 39.55 |
